Our source for the IC50 values is ChEMBL document CHEMBL1139815, “Synthesis and characterization of a pegylated derivative of 3-(1,2,3,6-tetrahydro-pyridin-4yl)-1H-indole (IDT199): a high affinity SERT ligand for conjugation to quantum dots” (Bioorg Med Chem Lett, 2007).

The experiment deals with Sodium-dependent serotonin transporter (Homo sapiens, UniProt P31645). Nature of the experiment: Displacement of [3H]serotonin from human SERT expressed in HeLa cells. The experiment is classed as cell-based. In general terms: Displacement assays read how much labelled ligand stays bound in the presence of the test substance.
Sequence of Sodium-dependent serotonin transporter (P31645 whole entry): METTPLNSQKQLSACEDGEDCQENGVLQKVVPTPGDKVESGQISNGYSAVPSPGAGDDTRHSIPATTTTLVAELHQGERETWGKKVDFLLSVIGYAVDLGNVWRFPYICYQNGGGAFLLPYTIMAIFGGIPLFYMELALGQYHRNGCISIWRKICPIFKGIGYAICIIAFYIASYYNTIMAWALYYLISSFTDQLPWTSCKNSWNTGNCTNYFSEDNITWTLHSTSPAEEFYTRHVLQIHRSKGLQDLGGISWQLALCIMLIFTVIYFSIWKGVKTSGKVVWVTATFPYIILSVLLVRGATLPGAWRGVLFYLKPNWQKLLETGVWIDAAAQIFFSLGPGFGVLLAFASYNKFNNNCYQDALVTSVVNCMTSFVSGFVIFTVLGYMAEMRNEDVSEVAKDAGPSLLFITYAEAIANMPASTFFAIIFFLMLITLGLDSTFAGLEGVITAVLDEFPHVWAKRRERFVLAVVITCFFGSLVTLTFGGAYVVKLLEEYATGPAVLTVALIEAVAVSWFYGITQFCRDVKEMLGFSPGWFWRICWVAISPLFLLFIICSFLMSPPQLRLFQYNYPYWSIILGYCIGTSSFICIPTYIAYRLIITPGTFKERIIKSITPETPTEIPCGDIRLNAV

A word on the IC50: it is the concentration needed to halve the response being measured. Higher therefore signals weaker potency in that assay. With `NCCCCCCCCCCCN1CCC(c2c[nH]c3ccccc23)CC1`, the IC50 was determined as 25 nM.
